Data from ChEMBL document CHEMBL1201862, “PubChem BioAssay data set” (2004).
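Five concentrations, 48 hours, 96-well plates. Here, GI50 denotes the concentration required for 50% inhibition of growth.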 Activity calls are given as the source filed them. No stated cut-off is given here; in the data, active = GI50 up to about 1.1 µM and inactive = higher.

What was measured:
Test in all cases: DTP human tumour cell line panel, 48 h
[1] = system: HCT-116
[2] = system: TK-10
[3] = system: NCI-H460
[4] = system: CAKI-1
[5] = system: HCT-15
[6] = system: MCF7
[7] = system: NCI-H23
[8] = system: SN12C
[9] = system: SR
[10] = system: HT-29
[11] = system: U-251
[12] = system: A549
[13] = system: SK-MEL-28
[14] = system: SNB-19
[15] = system: SK-OV-3
[16] = system: A498
[17] = system: MDA-MB-231
[18] = system: UACC-257
[19] = system: Hs-578T

Structure (SMILES) | GI50 [1] | GI50 [2] | GI50 [3] | GI50 [4] | GI50 [5] | GI50 [6] | GI50 [7] | GI50 [8] | GI50 [9] | GI50 [10] | GI50 [11] | GI50 [12] | GI50 [13] | GI50 [14] | GI50 [15] | GI50 [16] | GI50 [17] | GI50 [18] | GI50 [19]
COC(=O)[C@@H]1CCCN1CCN1CCC[C@H]1C(=O)OC | > 100 µM (inactive) | > 100 µM (inactive) | > 100 µM (inactive) | > 100 µM (inactive) | > 100 µM | > 100 µM (inactive) | > 100 µM (inactive) | > 100 µM (inactive) | 31.8 µM (inactive) | > 100 µM (inactive) | > 100 µM (inactive) | > 100 µM (inactive) | > 100 µM (inactive) | > 100 µM (inactive) | > 100 µM (inactive) | > 100 µM (inactive) | > 100 µM (inactive) | – | –
COc1ccc(/C=C/c2ccnc3ccccc23)cc1OC | 12.6 µM (inactive) | 15.6 µM (inactive) | 15.2 µM (inactive) | 15.8 µM (inactive) | 15.2 µM | 6.82 µM (inactive) | 14.9 µM (inactive) | 17.9 µM (inactive) | 25.5 µM (inactive) | 12.4 µM (inactive) | 46.9 µM (inactive) | 15.1 µM (inactive) | 17.5 µM (inactive) | 17.4 µM (inactive) | 27.7 µM (inactive) | 11.5 µM (inactive) | – | 21.2 µM (inactive) | 18.1 µM (inactive)
OCCCc1cnco1 | > 100 µM (inactive) | > 100 µM (inactive) | > 100 µM (inactive) | > 100 µM (inactive) | > 100 µM | – | > 100 µM (inactive) | > 100 µM (inactive) | > 100 µM (inactive) | > 100 µM (inactive) | > 100 µM (inactive) | > 100 µM (inactive) | > 100 µM (inactive) | > 100 µM (inactive) | > 100 µM (inactive) | > 100 µM (inactive) | – | > 100 µM (inactive) | –
CCOC(=O)/C(=C\c1ccc(O)c(OC)c1)C(=O)c1ccccc1 | 10.6 µM (inactive) | 25.9 µM (inactive) | 22.2 µM (inactive) | 23.9 µM (inactive) | 8.75 µM | – | 8.22 µM (inactive) | 11.1 µM (inactive) | 11 µM (inactive) | 24.7 µM (inactive) | 13.5 µM (inactive) | 18.2 µM (inactive) | 9.75 µM (inactive) | 16.5 µM (inactive) | > 42.8 µM (inactive) | 17 µM (inactive) | – | 18.4 µM (inactive) | –
CC1(CCOCc2ccccc2)NC(=O)NC1=O (configuration not stated) | > 100 µM (inactive) | > 100 µM (inactive) | > 100 µM (inactive) | > 100 µM (inactive) | > 100 µM | – | > 100 µM (inactive) | > 100 µM (inactive) | > 100 µM (inactive) | > 100 µM (inactive) | > 100 µM (inactive) | > 100 µM (inactive) | > 100 µM (inactive) | > 100 µM (inactive) | – | > 100 µM (inactive) | > 100 µM (inactive) | > 100 µM (inactive) | > 100 µM (inactive)
CCOc1cc(NC(C)=O)ccc1C(=O)NN1C(=O)/C(=C/c2ccc(Cl)cc2)N=C1c1ccccc1 | 46.1 µM (inactive) | 49.1 µM (inactive) | – | 43.1 µM (inactive) | 35.6 µM | 4.67 µM (inactive) | 41.6 µM (inactive) | 70.6 µM (inactive) | 46 µM (inactive) | 52.6 µM (inactive) | 55.8 µM (inactive) | 37.8 µM (inactive) | > 100 µM (inactive) | > 100 µM (inactive) | > 100 µM (inactive) | 24.9 µM (inactive) | 33.7 µM (inactive) | 43.9 µM (inactive) | –
CC(NC(=O)c1c(O)[nH]c(=S)[nH]c1=O)c1ccc([N+](=O)[O-])cc1 (configuration not stated) | 61 µM (inactive) | > 100 µM (inactive) | > 100 µM (inactive) | > 100 µM (inactive) | > 100 µM | 71 µM (inactive) | 88.1 µM (inactive) | > 100 µM (inactive) | – | > 100 µM (inactive) | 32.5 µM (inactive) | > 100 µM (inactive) | > 100 µM (inactive) | 57.5 µM (inactive) | > 100 µM (inactive) | – | 60.7 µM (inactive) | > 100 µM (inactive) | > 100 µM (inactive)
Cc1cc(S(=O)(=O)Nc2nc(N)nc(N(C)C)n2)c(S)cc1Cl | > 10 µM (inactive) | > 10 µM (inactive) | > 10 µM (inactive) | > 10 µM (inactive) | > 10 µM | > 10 µM (inactive) | > 10 µM (inactive) | > 10 µM (inactive) | > 10 µM (inactive) | > 10 µM (inactive) | > 10 µM (inactive) | > 10 µM (inactive) | > 10 µM (inactive) | > 10 µM (inactive) | > 10 µM (inactive) | > 10 µM (inactive) | – | > 10 µM (inactive) | –
O=C(O)c1cc2ccccc2c(Cc2c(O)c(C(=O)O)cc3ccccc23)c1O [PAMOIC ACID] | > 100 µM (inactive) | > 100 µM (inactive) | > 100 µM (inactive) | > 100 µM (inactive) | > 100 µM | – | > 100 µM (inactive) | > 100 µM (inactive) | > 100 µM (inactive) | > 100 µM (inactive) | > 100 µM (inactive) | > 100 µM (inactive) | > 100 µM (inactive) | > 100 µM (inactive) | – | > 100 µM (inactive) | > 100 µM (inactive) | > 100 µM (inactive) | > 100 µM (inactive)
COc1c(Br)cc(/C=C(\C#N)c2ccccn2)cc1Br | 30.3 µM (inactive) | 67.6 µM (inactive) | > 100 µM (inactive) | > 100 µM (inactive) | 84.9 µM | 26.1 µM (inactive) | 41.7 µM (inactive) | > 100 µM (inactive) | > 100 µM (inactive) | > 100 µM (inactive) | 13.3 µM (inactive) | > 100 µM (inactive) | > 100 µM (inactive) | > 100 µM (inactive) | 15.3 µM (inactive) | < 0.01 µM (active) | – | > 100 µM (inactive) | –
Cc1sc(N/N=C2\C(=O)Nc3ccccc32)nc1-c1ccccc1 | 12.4 µM (inactive) | 23.8 µM (inactive) | 10.2 µM (inactive) | 17.4 µM (inactive) | 9.38 µM | 15.3 µM (inactive) | 16.6 µM (inactive) | 12.1 µM (inactive) | – | 20.3 µM (inactive) | 11 µM (inactive) | 14.8 µM (inactive) | 17.3 µM (inactive) | 16.6 µM (inactive) | 14.9 µM (inactive) | 15.1 µM (inactive) | 14.5 µM (inactive) | 21.4 µM (inactive) | –
CN(C)CCNC(=O)c1cc(-c2nccn2C)nc2ccccc12 | > 100 µM (inactive) | > 100 µM (inactive) | 34.4 µM (inactive) | > 100 µM (inactive) | 66.1 µM | 70.1 µM (inactive) | > 100 µM (inactive) | > 100 µM (inactive) | > 100 µM (inactive) | > 100 µM (inactive) | > 100 µM (inactive) | > 100 µM (inactive) | – | > 100 µM (inactive) | – | > 100 µM (inactive) | > 100 µM (inactive) | > 100 µM (inactive) | –
Cc1cc(O)no1 [HYMEXAZOL] | > 100 µM (inactive) | > 100 µM (inactive) | > 100 µM (inactive) | > 100 µM (inactive) | > 100 µM | > 100 µM (inactive) | > 100 µM (inactive) | – | – | > 100 µM (inactive) | > 100 µM (inactive) | > 100 µM (inactive) | > 100 µM (inactive) | > 100 µM (inactive) | > 100 µM (inactive) | – | > 100 µM (inactive) | > 100 µM (inactive) | > 100 µM (inactive)
C=C1C(=O)OC2C1CCC(C)C1(O)C=CC(=O)C21C (configuration not stated) | 5.04 µM (inactive) | 6.75 µM (inactive) | > 10 µM (inactive) | – | 4.5 µM | > 10 µM (inactive) | 7.69 µM (inactive) | > 10 µM (inactive) | 3.13 µM (inactive) | > 10 µM (inactive) | > 10 µM (inactive) | > 10 µM (inactive) | 5.92 µM (inactive) | > 10 µM (inactive) | > 10 µM (inactive) | 5.46 µM (inactive) | – | – | > 10 µM (inactive)
CC(=O)Nc1ccc2c(c1)/C(=N/c1ccc(C(=O)O)cc1)c1ccccc1-2 | > 100 µM (inactive) | > 100 µM (inactive) | 44.7 µM (inactive) | > 100 µM (inactive) | 43.9 µM | 2.42 µM (inactive) | > 100 µM (inactive) | > 100 µM (inactive) | – | 59.6 µM (inactive) | > 100 µM (inactive) | > 100 µM (inactive) | > 100 µM (inactive) | 55.6 µM (inactive) | > 100 µM (inactive) | > 100 µM (inactive) | – | > 100 µM (inactive) | 92.7 µM (inactive)
CC(C)C[C@H](NC(=O)[C@@H](N)Cc1cccc2ccccc12)B(O)O | < 0.0165 µM (active) | < 0.0182 µM (active) | 0.0695 µM (active) | < 0.0164 µM (active) | 0.033 µM | < 0.0232 µM (active) | 0.0249 µM (active) | 0.0426 µM (active) | < 0.0154 µM (active) | < 0.0178 µM (active) | 0.0416 µM (active) | 0.0766 µM (active) | < 0.0149 µM (active) | 2.47 µM (inactive) | 0.0703 µM (active) | < 0.0189 µM (active) | 0.0354 µM (active) | 0.0311 µM (active) | –
O=C(NCc1ccncc1)C1COc2cc(-c3cc(=O)c4ccccc4o3)ccc2O1 (configuration not stated) | > 100 µM (inactive) | > 100 µM (inactive) | > 100 µM (inactive) | – | > 100 µM | – | > 100 µM (inactive) | > 100 µM (inactive) | > 100 µM (inactive) | > 100 µM (inactive) | > 100 µM (inactive) | > 100 µM (inactive) | > 100 µM (inactive) | – | > 100 µM (inactive) | – | – | > 100 µM (inactive) | –
